Laboratory results reported in patent US20260115250A1, “METHODS OF TREATING AGE-RELATED MACULAR DEGENERATION” (Character Biosciences, Inc., priority 2022, published 2026).
Blank lines part the entries; values can stand above or below the compound they belong to. Ends that are not written are not given here. Peptide text beside a SMILES is read from it.

Tests used:
ARPE-19 cells = assay: ARPE-19 cell viability assay (Cell Titer Glo); format: cell-based, human; settings: 100 μM peptide, 1.5 hours
Experimental: ARPE-19 cells were seeded in 96-well plates at 25,000 cells/well and allowed to adhere to the plate surface for at least 24 hours. Peptides were diluted in serum-free DMEM: F12 to a final concentration of 100 μM. Cells were washed, then incubated in 100 μM peptide solution for 1.5 hours at 37° C. Plates were brought to room temperature for 30 minutes, then washed with DPBS. Cells were incubated in a 1:1 mixture of DPBS and Cell Titer Glo 2.0 Reagent for 10 minutes at room temperature, then cell luminescence was read on a plate reader. Viability values were background corrected, and 0% viability is determined by luminescence values of cells treated with 1% Triton-X-100. Data are presented as mean+SD over two separate runs.

LDLR [1] = target: T1, LDLR (Homo sapiens, UniProt P01130); assay: KD, Peptide (μM)
From the text: Table printed on a drawing sheet, FIG. 24B
Title: Buffer: HBS + 0.005% P20
Head of the field: KD, Peptide (μM)
The patent's description of the figure: FIGS. 24A-24B are tables showing the binding kinetics results of LDLR binding assays (SPR), lipid-dependent binding with a low-surfactant preparation as described herein for select peptides shown in FIG. 1A-1I.
First copying reader's note: Continued from FIG. 24A; KD values are LDLR binding by SPR for the peptide alone and for its DMPC lipid complex, with the error given in the same cell after ±.
Where the first naming reader finds the target: description_of_the_figure: FIGS. 24A-24B are tables showing the binding kinetics results of LDLR binding assays (SPR)
Target sequence in this assay (P01130 22-860 limits assumed): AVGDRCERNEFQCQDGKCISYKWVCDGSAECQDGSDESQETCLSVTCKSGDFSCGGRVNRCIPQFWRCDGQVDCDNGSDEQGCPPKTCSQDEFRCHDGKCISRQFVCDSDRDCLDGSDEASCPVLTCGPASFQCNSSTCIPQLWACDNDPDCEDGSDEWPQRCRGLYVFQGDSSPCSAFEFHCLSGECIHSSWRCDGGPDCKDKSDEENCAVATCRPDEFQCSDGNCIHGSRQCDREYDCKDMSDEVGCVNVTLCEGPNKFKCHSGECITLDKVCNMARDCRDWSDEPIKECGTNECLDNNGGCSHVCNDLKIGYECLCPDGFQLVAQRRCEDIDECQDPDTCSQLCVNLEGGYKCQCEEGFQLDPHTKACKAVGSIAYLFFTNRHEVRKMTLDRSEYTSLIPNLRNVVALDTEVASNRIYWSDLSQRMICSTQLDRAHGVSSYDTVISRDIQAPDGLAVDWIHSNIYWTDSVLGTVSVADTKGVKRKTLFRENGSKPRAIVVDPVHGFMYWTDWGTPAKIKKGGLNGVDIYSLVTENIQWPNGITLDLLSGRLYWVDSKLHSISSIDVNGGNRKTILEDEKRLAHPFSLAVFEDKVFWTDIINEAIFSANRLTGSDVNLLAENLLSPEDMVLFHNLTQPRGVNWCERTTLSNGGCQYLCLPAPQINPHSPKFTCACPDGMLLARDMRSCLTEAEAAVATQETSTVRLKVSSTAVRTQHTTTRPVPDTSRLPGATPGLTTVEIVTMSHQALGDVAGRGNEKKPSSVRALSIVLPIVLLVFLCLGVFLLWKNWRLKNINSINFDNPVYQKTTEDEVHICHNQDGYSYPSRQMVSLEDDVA

LDLR [2] = target: T1, LDLR; assay: LDLR binding (SPR), high surfactant preparation
Procedure, shortened: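 Multi-cycle kinetics fitted 1:1: peptide flowed at 30 μL/sec for 120 seconds over immobilised LDLR (amine coupling, CM5, 1000 RU) in running buffer HBS-P+ plus 1 mM CaCl2. Five concentrations per peptide, 1:3 serial from 5 μM; surface regenerated between cycles with 50 mM NaOH/100 mM EDTA.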
Target sequence in this assay (P01130 22-860): as the sequence (P01130 22-860 limits assumed) above

C57BL/6J mice = assay: tolerability testing in mice after intravitreal injection (H&E histopathology); format: in vivo, mouse; settings: IVT, 520 μM, seven days
From the text: Seven days following IVT injection, eyes were harvested and prepared for hematoxylin and eosin staining. A blinded veterinarian performed histopathological analysis of tissue slices to determine whether the peptides induced inflammation or retinal disruption.

[3] = DMPC solubility titration, 1 mM DMPC; format: biochemical; settings: 3.16-100 μM peptides, 15 minutes
Experimental: FIGS. 4A-4B illustrate a screening assay based on DMPC solubility, measured by reducing turbidity of DMPC liposome solutions, for a subset of the peptides in FIGS. 1B-1I. FIGS. 4A-4B illustrate DMPC solubility titration curves. Peptide stocks were diluted to 200 μM in H2O (a 2× solution) and serially diluted in H2O over 4 concentrations, then 50 μL of peptide solutions were distributed in triplicate into 96-well plates. A 2 mM solution of 1,2-dimyristoyl-sn-glycero-3-phosphocholine (DMPC) in H2O was prepared, and using a multichannel pipet, 50 μL DMPC solution was rapidly added to the plate. Peptide and lipid solutions were incubated at room temperature for 15 minutes with final concentrations of 3.16-100 μM peptides and 1 mM DMPC. After 15 minutes, absorbance was read on a plate reader at 405 nm. […] Data are presented as mean+SD over two runs. Non-linear regression was used to calculate EC50 values.

HMC3 cells = assay: HMC3 cholesterol efflux; format: cell-based, human
Experimental: (§1) FIGS. 27A-27B and FIG. 28 illustrate HMC3 cholesterol efflux. Fully confluent 96-well plates of HMC3 cells were treated for 1 hour in serum-free EMEM containing 10 mM methyl-β-cyclodextrin, 100 μM cholesterol, and 25 μM BODIPY cholesterol. Cells were then washed and incubated overnight in serum free EMEM containing 1 μM LXR agonist GW3965, 2 μg/mL ACAT inhibitor, and 0.2% BSA (LXR Agonist treated), or serum-free EMEM containing 2 μg/mL ACAT inhibitor, and 0.2% BSA (Control). Cells were washed and incubated with 20 μM peptides diluted in serum-free Fluorobrite DMEM for 4 hours at 37° C. Media was transferred to a new 96-well plate and fresh serum-free Fluorobrite DMEM was placed on the cells. Media and cellular fluorescence were read on a Promega GloMax at 475 nm excitation, 500-550 emission. Fluorescence values were background corrected from no treatment conditions and percent efflux was calculated by the following equation: % efflux=(Media Fluorescence values)/(Media+Cell Fluorescence values). Data are presented as mean+SD over two runs per peptide.
as §1, with “FIGS. 30A-30J show” for “FIGS. 27A-27B and FIG. 28 illustrate”, “cholesterol efflux titration curves for the indicated peptides.” for “cholesterol efflux.”, “μM” for “μM LXR agonist”, “or serum free” for “or serum-free”, “with 0-100” for “with 20”, “peptides serially” for “peptides”

[4] = DMPC solubility assay, 0.5 mM DMPC (turbidity reduction); format: biochemical; settings: FIGS. 2A-2D and 3A-3C
Procedure, shortened: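 Peptides (100 μM final, or 3.16-100 μM for titrations) incubated with 0.5 mM DMPC in water for 15 minutes at room temperature. Turbidity read as absorbance at 405 nm; EC50 from non-linear regression, mean+SD over two runs.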

HepG2 cells = assay: HepG2 GAG dependent cholesterol import (with or without heparin); format: cell-based; settings: HepG2, 10 μM peptide, with or without 100 μg/mL heparin
Experimental: HepG2 cells were seeded on 96-well plates at 10,000 cells per well and grown to confluence. A 2× solution of 500 μM DMPC and 50 μM BODIPY-Cholesterol with or without 100 μg/mL heparin was prepared in serum free EMEM. Peptides were diluted to 20 μM in serum-free EMEM (a 2× solution). Peptides were added to lipid solution in equal parts (60 μL each) and incubated for 1 hour at 37° C. HepG2 cells were serum starved in serum-free EMEM for 1 hour at 37° C. Peptide: Lipid complexes (100 μL total volume per well) were transferred to HepG2 cells for 2 hours at 37° C. Cells were washed, fixed, and intracellular fluorescence was read on Promega GloMax at 475 nm excitation, 500-550 emission. Fluorescence values were background corrected from no treatment conditions. Data are presented ±SD for 2 runs.

LDLR [5] = target: T1, LDLR; assay: lipid-dependent LDLR binding (SPR), single concentration; settings: 1 μM peptide with or without 25 μM DMPC
Experimental: Peptides were diluted in 1×HBS-N buffer with 1 mM CaCl2 to a final concentration of 1 μM and incubated with or without 25 μM DMPC for 1 hour at RT to form lipid complexes. Each peptide was tested in duplicate. LDLR was diluted to 10 μg/mL in 10 mM acetate buffer pH 4.5 and was immobilized (˜400RU) on a CM5 chip via amine coupling utilizing 1×HBS-P+ buffer with 1 mM CaCl2. Test peptides (with or without DMPC) were exposed to immobilized LDLR at a flow rate of […] for 120 seconds in HBS-N with 1 mM CaCl2. Between cycles the surface was regenerated with 3, 30 second injections of 10 mM NaOH and 100 mM EDTA. Data are plotted as max RU values, averaged from three separate runs.
Target sequence in this assay (P01130 22-860): as the sequence (P01130 22-860 limits assumed) above

[6] = peptide binding to non-oxidized and oxidized lipids (SPR); settings: immobilized peptide; RU normalized to DMPC
Experimental: FIGS. 25A-25O show peptide binding activity to non-oxidized and oxidized lipids via SPR for indicated peptides. Peptides were reconstituted to 50 μg/mL in 10 mM acetate buffer, pH 4.5 and immobilized to ˜200 RU on a CM5 chip via amine coupling. Non-oxidized lipids (DMPC & POPC) and oxidized lipids (POVPC & KOdiA-PC) were diluted to 100 µM in HBS-EP running buffer and exposed to the chip for binding (n=3) at a flow rate of […] for 120 seconds. The surface was regenerated with 20% EtOH. T-001 served as a positive control and T-031 served as a negative control on each chip. For each peptide, the RU response for all lipids was normalized to the DMPC RU values.

Compound: CC(C)C[C@H](NC(=O)[C@H](CCCNC(=N)N)NC(=O)[C@H](CC(=O)O)NC(=O)[C@@H](NC(=O)[C@H](CC(C)C)NC(=O)[C@H](CCCCN)NC(=O)[C@H](CC(=O)O)NC(=O)CNC(=O)[C@H](CC(=O)O)NC(=O)[C@H](CCCNC(=N)N)NC(=O)[C@H](CC(C)C)NC(=O)[C@H](CC(C)C)NC(=O)[C@H](CCCNC(=N)N)NC(=O)[C@H](CCCCN)NC(=O)[C@H](CCCNC(=N)N)NC(=O)[C@H](CC(C)C)NC(=O)[C@H](CCCCN)NC(=O)[C@H](CCCNC(=N)N)NC(=O)[C@H](CC(C)C)NC(=O)[C@@H](N)Cc1c[nH]cn1)C(C)C)C(=O)N[C@@H](C)C(=O)N[C@@H](CCC(=O)O)C(=O)N[C@@H](Cc1ccc(O)cc1)C(=O)N[C@H](C(=O)N[C@@H](C)C(=O)N[C@@H](CCCNC(=N)N)C(=O)N[C@@H](C)C(=O)N[C@@H](CCCCN)C(=O)N[C@@H](CCC(=O)O)C(=O)N[C@@H](C)C(=O)N[C@@H](Cc1ccccc1)C(=O)N[C@@H](CC(=O)O)C(=O)N[C@@H](CCCNC(=N)N)C(=O)O)C(C)C [T-077] (H-HLRKLRKRLLRDGDKLVDRLAEYVARAKEAFDR-OH)
ARPE-19 cell viability (ARPE-19 cells): substantial change in viability
Kd (LDLR [1]): 33.2 ± 37.7 µM

Compound: YKDFGERVERALGRQLEMLGQSTEELRVRLASHLRKLRKRLLRDADDLQKRLAVYQA [T-112]
Kd (LDLR [2]): < 10 µM
in vivo tolerability (inflammation or retinal disruption) (C57BL/6J mice): all peptides except T-112 were well tolerated

Compound: LKDFGERVARALREQFEDLGQSTEELRVRLASHLRKLRKRLLRDADDLQKRLAVYQA [T-114]
Kd (LDLR [2]): < 10 µM
in vivo tolerability (inflammation or retinal disruption) (C57BL/6J mice): well tolerated

Compound: CC[C@H](C)[C@H](NC(=O)[C@H](Cc1ccccc1)NC(=O)[C@H](CCCNC(=N)N)NC(=O)[C@H](CCCCN)NC(=O)[C@H](CC(C)C)NC(=O)[C@H](CCC(=O)O)NC(=O)[C@H](CCCCN)NC(=O)[C@H](CC(C)C)NC(=O)[C@H](C)NC(=O)[C@H](CO)NC(=O)[C@H](CCC(=O)O)NC(=O)[C@H](CC(C)C)NC(=O)[C@H](C)NC(=O)[C@H](CC(=O)O)NC(=O)[C@H](C)NC(=O)CNC(=O)[C@H](CO)NC(=O)[C@@H](N)CCCNC(=N)N)C(=O)N[C@@H](CCCNC(=N)N)C(=O)N[C@@H](CCC(=O)O)C(=O)N[C@@H](Cc1c[nH]c2ccccc12)C(=O)N[C@H](C(=O)O)[C@@H](C)O [T-101] (H-RSGADALESALKELKRFIREWT-OH; N-terminus and C-terminus assumed)
in vivo tolerability (inflammation or retinal disruption) (C57BL/6J mice): well tolerated

Continued, in another order:

EC50 [3]: 16.1 µM
Compound: REFRALFKELADYFRDAW [T-084, therapeutic peptide]
cholesterol efflux titration (HMC3 cells; HMC3, 0-100 μM peptide, LXR agonist): concentration-dependent increase in cholesterol efflux
cholesterol efflux in the presence of LXR agonist (HMC3 cells; HMC3, 20 μM peptide, 4 hours): greater cholesterol efflux

lipid-dependent LDLR binding (RU with lipid vs peptide alone) (LDLR [5]): lipid-dependent LDLR binding activity
Compound: T-029: therapeutic peptide (HLRKLRKRLLRDGDKLCDRLAEYCARAKEAFDR)
DMPC solubilizing activity [4]: significant activity
GAG dependence of cholesterol import (HepG2 cells): rely on GAG binding for cholesterol import activity
binding to oxidized lipids relative to DMPC [6]: binding to at least one oxidized lipid that was equivalent or improved to binding against DMPC

Kd (LDLR [1]): 4.27 ± 0.19 µM
Compound: CC(C)C[C@H](NC(=O)[C@H](Cc1c[nH]cn1)NC(=O)[C@H](CO)NC(=O)[C@H](C)NC(=O)[C@@H](N)CC(C)C)C(=O)N[C@@H](CCCNC(=N)N)C(=O)N[C@@H](CCCCN)C(=O)N[C@@H](CC(C)C)C(=O)N[C@@H](CCCNC(=N)N)C(=O)N[C@@H](CCCCN)C(=O)N[C@@H](CCCNC(=N)N)C(=O)N[C@@H](CC(C)C)C(=O)N[C@@H](CC(C)C)C(=O)N[C@@H](CCCNC(=N)N)C(=O)N[C@@H](CC(=O)O)C(=O)N[C@@H](C)C(=O)N[C@@H](CC(=O)O)C(=O)N[C@@H](CC(=O)O)C(=O)O [T-073]
